Measurements reported in US20260209250A1, “CRYSTAL FORM OF KRAS G12D INHIBITOR AND PREPARATION METHOD THEREFOR” (priority 2022, published 2026).

What was measured:
[1] = Long-term/accelerated stability; type: physicochemical
[2] = Crystal form stability study (influencing factor experiments); type: physicochemical; conditions: for Physical and chemical properties (conclusion of influencing factor experiments): high temperatures and high humidities for 30 days
Experimental: Samples of the crystal forms A, B, C, I, J, and K of the compound represented by formula (I) were taken, spread in open containers, and left to stand under conditions of light exposure (4500 Lux), high temperatures (40° C. and 60° C.), and high humidities (RH 75% and RH 92.5%) for 30 days to investigate their stability, and the results are shown in Table 16.

[3] = 40° C., 10 days, open container
[4] = 40° C., 30 days, open container
[5] = 60° C., 10 days, open container
[6] = 60° C., 30 days, open container
[7] = 75% RH, 10 days, open container
[8] = 75% RH, 30 days, open container
[9] = 92.5% RH, 5 days, open container
[10] = 92.5% RH, 10 days, open container
[11] = 92.5% RH, 30 days, open container
[12] = light exposure (4500 Lux), 5 days, open container
[13] = light exposure (4500 Lux), 10 days, open container
[14] = light exposure (4500 Lux), 30 days, open container

CCc1c(F)ccc2cc(O)cc(-c3nc4c5c(nc(OC[C@@]67CCCN6C[C@H](F)C7)nc5c3F)N3C[C@H]5CC[C@H](N5)[C@H]3CO4)c12 [Crystal form A, 5-Ethyl-6-fluoro-4-((5aS,6S,9R)-1-fluoro-12-(((2R,7aS)-2-fluorotetrahydro-1H-pyrrolizin-7a(5H)-yl)methoxy)-5a,6,7,8,9,10-hexahydro-5H-4-oxa-3,10a,11,13,14-pentaaza-6,9-methanonaphtho[1,8-ab]heptalen-2-yl)naphthalen-2-ol]
Purity % 1 month ([1]; 25° C./60% RH): 99.3%
Purity % 3 months ([1]; 25° C./60% RH): 99.3%
Purity % 6 months ([1]; 25° C./60% RH): 99.3%
Purity % Initial ([1]; 25° C./60% RH): 99.3%
Purity % 1 month ([1]; 40° C./75% RH): 99.3%
Purity % 3 months ([1]; 40° C./75% RH): 99.2%
Purity % 6 months ([1]; 40° C./75% RH): 99.1%
Purity % Initial ([1]; 40° C./75% RH): 99.3%
Color and state ([2]; 40° C., 5 days, open container): Off-white solid
Crystal form ([2]; 40° C., 5 days, open container): Did not change
Purity % ([2]; 40° C., 5 days, open container): 99.2%
Color and state [2, 3]: Off-white solid
Crystal form [2, 3]: Did not change
Purity % [2, 3]: 99.2%
Color and state [2, 4]: Off-white solid
Crystal form [2, 4]: Did not change
Purity % [2, 4]: 99.1%
Color and state ([2]; 60° C., 5 days, open container): Off-white solid
Crystal form ([2]; 60° C., 5 days, open container): Did not change
Purity % ([2]; 60° C., 5 days, open container): 99.1%
Color and state [2, 5]: Off-white solid
Crystal form [2, 5]: Did not change
Purity % [2, 5]: 99.0%
Color and state [2, 6]: Off-white solid
Crystal form [2, 6]: Did not change
Purity % [2, 6]: 98.5%
Color and state ([2]; 75% RH, 5 days, open container): Off-white solid
Crystal form ([2]; 75% RH, 5 days, open container): Did not change
Purity % ([2]; 75% RH, 5 days, open container): 99.3%
Color and state [2, 7]: Off-white solid
Crystal form [2, 7]: Did not change
Purity % [2, 7]: 99.3%
Color and state [2, 8]: Off-white solid
Crystal form [2, 8]: Did not change
Purity % [2, 8]: 99.3%
Color and state [2, 9]: Off-white solid
Crystal form [2, 9]: Did not change
Purity % [2, 9]: 99.3%
Color and state [2, 10]: Off-white solid
Crystal form [2, 10]: Did not change
Purity % [2, 10]: 99.4%
Color and state [2, 11]: Off-white solid
Crystal form [2, 11]: Did not change
Purity % [2, 11]: 99.3%
Color and state ([2]; Initial, 0 days): Off-white solid
Purity % ([2]; Initial, 0 days): 99.3%
Physical and chemical properties (conclusion of influencing factor experiments) [2]: good physical and chemical properties
Color and state [2, 12]: Off-white solid
Crystal form [2, 12]: Did not change
Purity % [2, 12]: 98.7%
Color and state [2, 13]: Off-white solid
Crystal form [2, 13]: Did not change
Purity % [2, 13]: 98.5%
Color and state [2, 14]: Pale yellow solid
Crystal form [2, 14]: Did not change
Purity % [2, 14]: 95.8%

CCc1c(F)ccc2cc(O)cc(-c3nc4c5c(nc(OC[C@@]67CCCN6C[C@H](F)C7)nc5c3F)N3C[C@H]5CC[C@H](N5)[C@H]3CO4)c12 [Crystal form I, 5-Ethyl-6-fluoro-4-((5aS,6S,9R)-1-fluoro-12-(((2R,7aS)-2-fluorotetrahydro-1H-pyrrolizin-7a(5H)-yl)methoxy)-5a,6,7,8,9,10-hexahydro-5H-4-oxa-3,10a,11,13,14-pentaaza-6,9-methanonaphtho[1,8-ab]heptalen-2-yl)naphthalen-2-ol]
Purity % 1 month ([1]; 25° C./60% RH): 99.6%
Purity % 2 months ([1]; 25° C./60% RH): 99.6%
Purity % 3 months ([1]; 25° C./60% RH): 99.6%
Purity % Initial ([1]; 25° C./60% RH): 99.6%
Purity % 1 month ([1]; 40° C./75% RH): 99.6%
Purity % 2 months ([1]; 40° C./75% RH): 99.4%
Purity % 3 months ([1]; 40° C./75% RH): 99.6%
Purity % Initial ([1]; 40° C./75% RH): 99.6%
Color and state ([2]; 40° C., 5 days, open container): Off-white solid
Crystal form ([2]; 40° C., 5 days, open container): Did not change
Purity % ([2]; 40° C., 5 days, open container): 99.6%
Color and state [2, 3]: Off-white solid
Crystal form [2, 3]: Did not change
Purity % [2, 3]: 99.4%
Color and state [2, 4]: Off-white solid
Crystal form [2, 4]: Did not change
Purity % [2, 4]: 99.3%
Color and state ([2]; 60° C., 5 days, open container): Off-white solid
Crystal form ([2]; 60° C., 5 days, open container): Did not change
Purity % ([2]; 60° C., 5 days, open container): 99.6%
Color and state [2, 5]: Off-white solid
Crystal form [2, 5]: Did not change
Purity % [2, 5]: 99.4%
Color and state [2, 6]: Off-white solid
Crystal form [2, 6]: Did not change
Purity % [2, 6]: 99.3%
Color and state ([2]; 75% RH, 5 days, open container): Off-white solid
Crystal form ([2]; 75% RH, 5 days, open container): Did not change
Purity % ([2]; 75% RH, 5 days, open container): 99.6%
Color and state [2, 7]: Off-white solid
Crystal form [2, 7]: Did not change
Purity % [2, 7]: 99.6%
Color and state [2, 8]: Off-white solid
Crystal form [2, 8]: Did not change
Purity % [2, 8]: 99.6%
Color and state [2, 9]: Off-white solid
Crystal form [2, 9]: Did not change
Purity % [2, 9]: 99.5%
Color and state [2, 10]: Off-white solid
Crystal form [2, 10]: Did not change
Purity % [2, 10]: 99.5%
Color and state [2, 11]: Off-white solid
Crystal form [2, 11]: Did not change
Purity % [2, 11]: 99.6%
Color and state ([2]; Initial, 0 days): Off-white solid
Crystal form ([2]; Initial, 0 days): Crystal form I
Purity % ([2]; Initial, 0 days): 99.6%
Physical and chemical properties (conclusion of influencing factor experiments) [2]: good physical and chemical properties
Color and state [2, 12]: Off-white solid
Crystal form [2, 12]: Did not change
Purity % [2, 12]: 99.6%
Color and state [2, 13]: Off-white solid
Crystal form [2, 13]: Did not change
Purity % [2, 13]: 99.5%
Color and state [2, 14]: Off-white solid
Crystal form [2, 14]: Did not change
Purity % [2, 14]: 99.2%

CCc1c(F)ccc2cc(O)cc(-c3nc4c5c(nc(OC[C@@]67CCCN6C[C@H](F)C7)nc5c3F)N3C[C@H]5CC[C@H](N5)[C@H]3CO4)c12 [Crystal form K, 5-Ethyl-6-fluoro-4-((5aS,6S,9R)-1-fluoro-12-(((2R,7aS)-2-fluorotetrahydro-1H-pyrrolizin-7a(5H)-yl)methoxy)-5a,6,7,8,9,10-hexahydro-5H-4-oxa-3,10a,11,13,14-pentaaza-6,9-methanonaphtho[1,8-ab]heptalen-2-yl)naphthalen-2-ol]
Purity % 1 month ([1]; 25° C./60% RH): 99.7%
Purity % 2 months ([1]; 25° C./60% RH): 99.8%
Purity % 6 months ([1]; 25° C./60% RH): 99.7%
Purity % Initial ([1]; 25° C./60% RH): 99.8%
Purity % 1 month ([1]; 40° C./75% RH): 99.7%
Purity % 2 months ([1]; 40° C./75% RH): 99.7%
Purity % 6 months ([1]; 40° C./75% RH): 99.4%
Purity % Initial ([1]; 40° C./75% RH): 99.8%
Color and state ([2]; 40° C., 5 days, open container): Off-white solid
Crystal form ([2]; 40° C., 5 days, open container): Did not change
Purity % ([2]; 40° C., 5 days, open container): 99.2%
Color and state [2, 3]: Off-white solid
Crystal form [2, 3]: Did not change
Purity % [2, 3]: 98.5%
Color and state [2, 4]: Off-white solid
Crystal form [2, 4]: Did not change
Purity % [2, 4]: 97.0%
Color and state ([2]; 60° C., 5 days, open container): Off-white solid
Crystal form ([2]; 60° C., 5 days, open container): Did not change
Purity % ([2]; 60° C., 5 days, open container): 99.1%
Color and state [2, 5]: Off-white solid
Crystal form [2, 5]: Did not change
Purity % [2, 5]: 98.5%
Color and state [2, 6]: Off-white solid
Crystal form [2, 6]: Did not change
Purity % [2, 6]: 97.0%
Color and state ([2]; 75% RH, 5 days, open container): Off-white solid
Crystal form ([2]; 75% RH, 5 days, open container): Did not change
Purity % ([2]; 75% RH, 5 days, open container): 99.8%
Color and state [2, 7]: Off-white solid
Crystal form [2, 7]: Did not change
Purity % [2, 7]: 99.7%
Color and state [2, 8]: Off-white solid
Crystal form [2, 8]: Did not change
Purity % [2, 8]: 99.7%
Color and state [2, 9]: Off-white solid
Crystal form [2, 9]: Did not change
Purity % [2, 9]: 99.8%
Color and state [2, 10]: Off-white solid
Crystal form [2, 10]: Did not change
Purity % [2, 10]: 99.7%
Color and state [2, 11]: Off-white solid
Crystal form [2, 11]: Did not change
Purity % [2, 11]: 99.7%
Color and state ([2]; Initial, 0 days): Off-white solid
Crystal form ([2]; Initial, 0 days): Crystal form K
Purity % ([2]; Initial, 0 days): 99.8%
Physical and chemical properties (conclusion of influencing factor experiments) [2]: good physical and chemical properties
Color and state [2, 12]: Off-white solid
Crystal form [2, 12]: Did not change
Purity % [2, 12]: 99.3%
Color and state [2, 13]: Off-white solid
Crystal form [2, 13]: Did not change
Purity % [2, 13]: 98.9%
Color and state [2, 14]: Off-white solid
Crystal form [2, 14]: Did not change
Purity % [2, 14]: 97.9%
